Test results taken from patent US20050014811A1, “Substituted benzimidazole compounds and their use for the treatment of cancer” (Aventis Pharma S.A., priority 2001, published 2005).

How the values were obtained:
CDK2/CyclinE = CDK2/CyclinE (Homo sapiens, UniProt P24941); experiment: CDK2/CyclinE Flashplate assay, 96-well format, biotinylated-Rb peptide substrate; format: biochemical
In short: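 Biotinylated Rb peptide was captured on streptavidin Flashplates, and CDK2/CyclinE (200 ng/well) was preincubated 30 min on ice with inhibitor at 10, 3, 1, 0.3 or 0.1 μM final. Reactions ran 45 min at RT with 1 μM ATP plus 1 μCi ^33P-ATP. After washing, incorporated ^33P was counted, in duplicate.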

CDK4/CyclinD1 = CDK4/CyclinD1 (Homo sapiens, UniProt P11802); experiment: CDK4/CyclinD1 Flashplate assay, 96-well format, biotinylated-Rb peptide substrate; format: biochemical
In short: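 Biotinylated Rb peptide bound to streptavidin Flashplate; CDK4/CyclinD1 (70 ng/well) preincubated 30 min on ice with compound at 10, 3, 1, 0.3 and 0.1 μM final. Reaction with 1 μM cold ATP plus 33P-ATP for 45 min at RT; incorporated 33P counted, duplicates.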

CDK4/CyclinD1, sequence (P11802 whole entry, species assumed): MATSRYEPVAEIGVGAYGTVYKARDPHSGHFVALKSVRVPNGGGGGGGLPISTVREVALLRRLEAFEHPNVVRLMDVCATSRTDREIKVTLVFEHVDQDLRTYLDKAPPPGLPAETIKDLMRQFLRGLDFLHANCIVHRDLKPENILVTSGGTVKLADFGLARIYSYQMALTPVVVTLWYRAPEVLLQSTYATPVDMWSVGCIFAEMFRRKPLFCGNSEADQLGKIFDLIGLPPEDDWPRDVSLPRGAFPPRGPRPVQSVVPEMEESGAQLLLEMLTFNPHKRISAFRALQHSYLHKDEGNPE
CDK4/CyclinD1, sequence (P24385 whole entry partner, species assumed): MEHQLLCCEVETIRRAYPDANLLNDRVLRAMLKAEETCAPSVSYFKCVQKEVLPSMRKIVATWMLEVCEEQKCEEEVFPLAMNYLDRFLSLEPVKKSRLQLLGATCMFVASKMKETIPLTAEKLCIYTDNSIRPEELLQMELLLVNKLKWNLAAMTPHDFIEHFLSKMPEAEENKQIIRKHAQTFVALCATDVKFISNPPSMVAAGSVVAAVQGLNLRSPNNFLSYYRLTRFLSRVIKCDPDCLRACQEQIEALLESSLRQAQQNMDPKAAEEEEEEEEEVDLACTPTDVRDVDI

IC50 (CDK2/CyclinE) [nM] | melting point [°C] | IC50 (CDK4/CyclinD1) [nM] | inhibition at 10 µM (CDK4/CyclinD1) [%] | SMILES
700 | 180 | 2000 |  | COC(=O)Nc1nc2cc(OS(=O)(=O)c3ccc(NCCCCO)cc3)ccc2[nH]1 [Example 2, Methyl-5-(4-[4-hydroxbutyl]aminophenylsulfonyloxy) benzimidazole-2-carbamate]
1500 | 258 | 6300 |  | COC(=O)Nc1nc2cc(OS(=O)(=O)c3ccc(-n4ccnc4)cc3)ccc2[nH]1 [Example 4, Methyl-5-(4-[1-imidazolyl]-phenylsulfonyloxy) benzimidazole-2-carbamate]
500 | 155 | 2400 |  | COCCNc1ccc(S(=O)(=O)Oc2ccc3[nH]c(NC(=O)OC)nc3c2)cc1 [Example 3, Methyl-5-(4-[2-methoxyethyl]aminophenylsulfonyloxy) benzimidazole-2-carbamate]
5 |  | 500 |  | CNC(=O)Nc1nc2cc(OS(=O)(=O)c3ccc(NCC4CCCO4)cc3)ccc2[nH]1 (stereo not shown) [Example 54, 4-[(Tetrahydro-furan-2-ylmethyl)-amino]-benzenesulfonic acid 2-(3-methyl-ureido)-1H-benzoimidazol-5-yl ester]
100 |  | 180 |  | CC(CO)NC(=O)Nc1nc2cc(OS(=O)(=O)c3ccc(NC4CCCC4)cc3)ccc2[nH]1 (stereo not shown) [Example 58-ak, 4-Cyclopentylamino-benzenesulfonic acid 2-[3-(2-hydroxy-1-methyl-ethyl)-ureido]-1H-benzoimidazol-5-yl ester]
4300 |  | 1250 |  | COc1cccc(NC(=O)Nc2nc3cc(OS(=O)(=O)c4ccc(NC5CCCC5)cc4)ccc3[nH]2)c1 [Example 38, 4-Cyclopentylamino-benzenesulfonic acid 2-[3-(3-methoxy-phenyl)-ureido]-1H-benzoimidazol-5-yl ester]
600 | 170 | 1500 |  | COC(=O)Nc1nc2cc(OS(=O)(=O)c3ccc(NCCO)cc3)ccc2[nH]1 [Example 1, Methyl-5-(4-[2-hydroxyethyl]aminophenylsulfonyloxy) benzimidazole-2-carbamate]
250 |  | 140 |  | CN1CCN(c2ccc(Nc3nc4cc(OS(=O)(=O)c5ccc(NC6CCCC6)cc5)ccc4[nH]3)cc2)CC1 [Example 70-h]
1100 |  | > 5000 |  | CN(C)C(=O)Nc1nc2cc(OS(=O)(=O)c3ccc(NC4CCCC4)cc3)ccc2[nH]1 [Example 32, N-[5-(4-cyclopentylaminophenylsulfonyloxy)-1H-benzimidazole-2-yl]-dimethylurea]
70 |  | 1000 |  | O=C(NCc1ccccc1)Nc1nc2cc(OS(=O)(=O)c3ccc(-n4ccnc4)cc3)ccc2[nH]1 [Example 57-l, 4-Imidazol-1-yl-benzenesulfonic acid 2-(3-benzyl-ureido)-1H-benzoimidazol-5-yl ester]
300 |  |  | 81 | O=C(Nc1nc2cc(OS(=O)(=O)c3ccc(NC4CCCC4)cc3)ccc2[nH]1)N1CCC1 [Example 58-i, 4-Cyclopentylamino-benzenesulfonic acid 2-[(azetidine-1-carbonyl)-amino]-1H-benzoimidazol-5-yl ester]
60 |  | 1800 |  | CCN1CCCC1CNC(=O)Nc1nc2cc(OS(=O)(=O)c3ccc(NCC4CCCO4)cc3)ccc2[nH]1 (stereo not shown) [Example 59-f, 4-[(Tetrahydro-furan-2-ylmethyl)-amino]-benzenesulfonic acid 2-[3-(1-ethyl-pyrrolidin-2-ylmethyl)-ureido]-1H-benzoimidazol-5-yl ester]
8 |  | 100 |  | NC(=O)CNC(=O)Nc1nc2cc(OS(=O)(=O)c3ccc(NCC4CCCO4)cc3)ccc2[nH]1 (stereo not shown) [Example 59-a, 4-[(Tetrahydro-furan-2-ylmethyl)-amino]-benzenesulfonic acid 2-(3-carbamoylmethyl-ureido)-1H-benzoimidazol-5-yl ester]
150 |  | 330 |  | O=C(NCCN1CCCC1)Nc1nc2cc(OS(=O)(=O)c3ccc(NC4CCCC4)cc3)ccc2[nH]1 [Example 58-ai, 4-Cyclopentylamino-benzenesulfonic acid 2-[3-(2-pyrrolidin-1-yl-ethyl)-ureido]-1H-benzoimidazol-5-yl ester]
500 |  |  | 88 | O=C(Nc1ccc(F)cc1)Nc1nc2cc(OS(=O)(=O)c3ccc(-n4ccnc4)cc3)ccc2[nH]1 [Example 57-f, 4-Imidazol-1-yl-benzenesulfonic acid 2-[3-(4-fluoro-phenyl)-ureido]-1H-benzoimidazol-5-yl ester]
